Laboratory results as given in patent US12158470B2, “Methods and compositions for live cell analysis of intracellular ATP” (Sartorius BioAnalytical Instruments, Inc., priority 2018, dated 2024).
Entries after “also recorded” stand apart in the source; their conditions may differ.

Assays:
[1] = tested on: receptor-positive breast cancer lines; experiment: Live cell ATP sensor imaging after compound treatment, receptor-positive breast cancer lines; type: cell-based
Method: (§1) Cancer cell lines stably expressing a genetically encoded, fluorescent ATP sensor or a control (non-ATP binding) sensor were generated. Cell lines were cultured in recommended media conditions except for studies evaluating the effects of the glutaminase-1 (GLS1) inhibitor CB-839, for which cells were adapted to RPMI supplemented with 10% FBS prior to experimentation. […] Cellular ATP levels were measured over the course of hours to days following compound treatment.
(§2) A live cell imaging approach was then utilized to evaluate the effect of cancer therapeutics on ATP levels in tumor cell lines, focusing primarily on compounds that target metabolic vulnerabilities. […] Quantification of phase confluence confirmed that sustained decreases in ATP were associated with enhanced antiproliferative efficacy compared to conditions under which recovery of ATP levels were observed.

[2] = tested on: triple-negative breast cancer (TNBC) cell lines; experiment: Live cell ATP sensor imaging after compound treatment, TNBC cell lines; type: cell-based
Method: as §1, §2

Question: What does the source list for `O=C(Cc1cccc(OC(F)(F)F)c1)Nc1ccc(CCCCc2nnc(NC(=O)Cc3ccccn3)s2)nn1` [CB-839]?
Answer: effect on ATP levels ([1]; receptor-positive cell lines, mono-culture): no change to more modest decreases in ATP; time to recovery of ATP levels ([1]; receptor-positive cells): ≤ 48 h; effect of co-culture on the ATP response ([1]; receptor-positive lines with CCD-1068Sk fibroblasts): unaffected by the presence of CCD-1068Sk fibroblasts; effect on ATP levels in co-culture ([2]; TNBC cultured on a monolayer of CCD-1068Sk fibroblasts): diminished effects on ATP levels; also recorded: attenuated by co-culture with CCD-1068Sk fibroblasts; effect on ATP levels ([2]; TNBC, mono-culture, three-day time course): rapid drop in ATP; also recorded: remained below that of vehicle-treated cells for the duration of the three-day time course; also recorded: prolonged ATP depletion
